Source: patent publication US20130011921A1, “METHOD FOR PRODUCTION OF ARTIFICIAL PLURIPOTENT STEM CELL” (SAITAMA MEDICAL UNIVERSITY, priority 2010, published 2013)
“Also recorded” adds a separate entry of the source.

What was measured:
Nanog-GFP MEF [1] = experiment: Induction of mouse iPS cells in the presence of MEK inhibitor and GSK-3 inhibitor (2i method), fluorescence microscope; assay type: cell-based; conditions: 4F (c-Myc); nicotinamide treatment followed by 2i method; FIGS. 7C and 7D
Protocol: Nanog-GFP MEF was subjected to forced expression of 4F(c-Myc) retrovirally. These were seeded on feeder cells on Day 4 after retroviral infection, and cultured in mouse ES cell medium from the following day. This was replaced with a serum-free mouse ES cell medium comprising PD0325901 (1 μM) and CHIR99021 (3 μM) (2i medium) from Day 12 after infection. […] As the control zone, culturing was also performed in a serum-free mouse ES cell medium without PD0325901 and CHIR99021 from 12 days after infection for four days. It was confirmed that true iPS cells are increased by the 2i method (FIGS. 7A and 7B).

Nanog-GFP MEF [2] = experiment: GFP observation of induced mouse iPS cells with a fluorescence microscope; assay type: cell-based; conditions: 4F (c-Myc)
Protocol: (§1) For retroviral introduction, a retroviral vector expressing each pluripotency inducer (Oct-3/4, Sox2, KLF4, and c-Myc) was introduced into packaging cells, PLAT-E cells (Kitamura T, et al. (2003) Exp Hematol 31:1007-1014). Culture supernatants of PLAT-E cells were each recovered two days after gene introduction, and filtered through a 0.45 μm cellulose acetate. Polybrene was then added to a final concentration […], an equal amount of each culture supernatant was mixed, and the mixture was added to Nanog-GFP MEF (Okita K, Ichisaka T, Yamanaka S. (2007) nature 448:313-317) for viral infection. Nanog-GFP MEF is a cell being a mouse embryonic fibroblast (MEF) to which a BAC was introduced, wherein a GFP-IRES-Puro^r cassette is inserted into the BAC carrying the mouse Nanog gene.

Nanog-GFP MEF [3] = experiment: Induction of mouse iPS cells, Puro-resistant AP-positive colonies; assay type: cell-based
Protocol: as §1
On Day 4 after retroviral infection, these were seeded on STO feeder cells with suppressed proliferation ability from mitomycin C (SIGMA: M4287) treatment (seeded at 2×10^3 cells/ml for cells infected with 4F (c-Myc), 3.5×10^4 cells/ml for 3F), and on the next day cultured in mouse ES cell medium (Nishimoto M, et al. (1999) Mol Cell Biol 19:5453-5465). Thereafter the medium was replaced every two days, replaced with puromycin (Puro)-containing mouse ES cell medium (Puro to a final concentration of […]) on Day 17 after infection, and cultured for eight more days. Alkaline phosphatase (AP) staining was then performed. Nicotinamide was added simultaneously with retroviral infection to a final concentration 4 mM, and then added at the same concentration for every medium exchange.
In order to investigate the optimal treatment time of nicotinamide, nicotinamide was added under each conditions of until Day 24 after retroviral infection (Nam 0-24d), until Day 4 after retroviral infection (Nam 0-4d), and from Day 4 to Day 24 after retroviral infection (Nam 4-24d), and iPS cells were induced by 4F (c-Myc). Experimental method other than the […] treatment time was in accordance with Test 1.
Consequently, resveratrol which activates sirtuin (SIRT1) was added to the medium instead of nicotinamide to investigate the induction effect of iPS cells. Experimental method was in accordance with Test 2, except that resveratrol (Res) was added to the medium to a final concentration 100 μM.

Nanog-GFP MEF [4] = experiment: Inspection on Day 4 after retroviral infection (colonies, cell count, AP staining, undifferentiated markers); assay type: cell-based, mouse
Protocol: As a result, iPS cell-like colonies were recognized in the Nam treatment group, but not in the untreated control group. (FIGS. 4 and 5A). Next, in order to investigate the influence of nicotinamide on Day 4 after infection, the number of cells was counted and AP staining was performed. […] Further, as a result of investigating the expression of various undifferentiated markers, it became clear that the expression of undifferentiated markers was increased compared to the non-treatment group due to nicotinamide treatment (data not shown). Accordingly, it became clear that iPS cell induction was already promoted on Day 4 after infection by nicotinamide treatment.

Nanog-GFP MEF [5] = experiment: 2i method timing and combination with nicotinamide, Puro-resistant AP-positive colonies; assay type: cell-based, mouse
Protocol: Nanog-GFP MEF was subjected to forced expression of 4F(c-Myc) retrovirally. These were seeded on feeder cells on Day 4 after retroviral infection, and cultured in mouse ES cell medium from the following day until replaced with the 2i medium. Culturing in the 2i medium was initiated on (1) Day 5, (2) Day 7, (3) Day 9, (4) Day 11, (5) Day 13, and (6) Day 15 after retroviral infection, and continued until Day 17 after infection. From Day 17 after infection, drug selection by Puro was performed for eight days, and then AP staining was performed. […] Next, in order to compare when the nicotinamide treatment is performed simultaneously with retroviral infection and when it is performed after one day post infection, investigation was performed in accordance with the conditions of Test 5 (1).

human fibroblasts = experiment: Induction of human iPS cells in the presence of nicotinamide, AP-positive colonies; assay type: cell-based
Protocol: For retroviral introduction, retroviral vectors expressing each pluripotency inducer (Oct-3/4, Sox2, KLF4, and c-Myc) were introduced into packaging cells, PLAT-GP cells (Morita S, et al. (2000) Gene Therapy 7:1063-1066). Culture supernatants of PLAT-GP cells were each recovered two days after gene introduction, and filtered through a 0.45 μm cellulose acetate. Polybrene was then added to a final concentration […], an equal amount of each culture supernatant was mixed, and the mixture was added to human fibroblasts for viral infection. These were seeded on feeder cells on Day 6 after retroviral infection (4F (c-Myc): 2.5×10^4; 4F (L-Myc): 5.0×10^4), and cultured in human ES cell medium on the following day (Takahashi K, et al (2007) Cell 131:861-872). Thereafter the medium was exchanged every two days, and cultured until thirty days after infection. Alkaline phosphatase (AP) staining was then performed, and the number of AP-positive colonies was counted. Nicotinamide was added simultaneously with retroviral infection to a final concentration 4 mM, and then added at the same concentration for every medium exchange until Day 6 after infection. The control zone was cultured to thirty days after infection without adding nicotinamide.

## NC(=O)c1cccnc1 [nicotinamide]
Nanog-GFP MEF [1]
  true iPS cells: dramatic increase
Nanog-GFP MEF [2]; after drug selection by Puro, FIG. 2 lower column
  GFP color development vs non-administration group: more intense color development
Nanog-GFP MEF [2]; without drug selection by Puro, FIG. 2 upper column
  GFP color development vs nicotinamide-untreated control cells: slightly more intense color development
Nanog-GFP MEF [3]; 4F (c-Myc), nicotinamide added Day 0 to Day 4 (Nam 0-4d), FIG. 3
  number of Puro-resistant colonies: similarly significantly increased
Nanog-GFP MEF [3]; 4F (c-Myc), nicotinamide added Day 0 to Day 24 (Nam 0-24d), FIG. 3
  number of Puro-resistant colonies: significantly increased
Nanog-GFP MEF [3]; 4F (c-Myc), nicotinamide added on or after Day 4 (Nam 4-24d), FIG. 3
  effect of increasing the number of Puro-resistant colonies: barely obtained
Nanog-GFP MEF [3]; cells infected with 3F (without c-Myc), nicotinamide 4 mM, FIG. 1C
  increase in induction efficiency (Puro-resistant AP-positive colonies): not seen
Nanog-GFP MEF [3]; cells infected with 4F (c-Myc), nicotinamide 4 mM from infection, at every medium exchange, FIG. 1A, 1B
  number of colonies showing resistance to puromycin (Puro-resistant AP-positive colonies): significantly increased
Nanog-GFP MEF [4]; Day 4 after infection, FIG. 5C
  number of AP-positive colonies: significant increase
Nanog-GFP MEF [4]; Day 4 after infection, vs non-treatment cell group, FIG. 5B
  number of cells: increase
Nanog-GFP MEF [4]; Day 4 after infection, vs non-treatment group, data not shown
  expression of undifferentiated markers: increased
Nanog-GFP MEF [4]; Day 4 after retroviral infection, vs untreated control group, FIGS. 4 and 5A
  iPS cell-like colonies: recognized
Nanog-GFP MEF [5]; nicotinamide 4 mM Day 0 to Day 4 plus 2i method as Test 5 (1), FIG. 9A
  proportion of true iPS cells: significantly increased
Nanog-GFP MEF [5]; nicotinamide treatment combined with 2i method, FIG. 9
  induction efficiency compared to the conventional method: about 10 times
Nanog-GFP MEF [5]; with 2i method as Test 5 (1), FIG. 9B
  induction efficiency, nicotinamide Day 1 to Day 4 relative to Day 0 to Day 4: three-fold; also recorded: three times or more
Human fibroblasts; L-Myc as the Myc family gene, 4F (L-Myc), FIG. 10B
  induction efficiency of iPS cells: increased
Human fibroblasts; c-Myc as the Myc family gene, 4F (c-Myc), FIG. 10A
  induction efficiency of iPS cells: increased
Human fibroblasts; nicotinamide 4 mM until Day 6, counted thirty days after infection, vs zone without nicotinamide, FIG. 10
  number of AP-positive colonies: increased

## Oc1ccc(C=Cc2cc(O)cc(O)c2)cc1 [resveratrol]
Nanog-GFP MEF [3]; 4F (c-Myc), resveratrol 100 μM added Day 0 to Day 4, vs DMSO control, FIG. 6
  number of Puro-resistant colonies: significantly decreased
Nanog-GFP MEF [3]; 4F (c-Myc), resveratrol 100 μM added Day 0 to Day 17, vs DMSO control, FIG. 6
  number of Puro-resistant colonies: significantly decreased
Nanog-GFP MEF [3]; 4F (c-Myc), resveratrol 100 μM added on Day 4 after introduction, FIG. 6
  number of Puro-resistant colonies: relatively large number
